Assay results as given in patent EP4692091A1, “CA[…], AND PHARMACEUTICAL COMPOSITION, PREPARATION METHOD THEREFOR AND USE THEREOF” (Changchun Genescience Pharmaceutical Co., Ltd., priority 2023, dated 2024).
≈ marks a conversion by molar mass, not a printed value. Read-outs that look alike come from different tables or passages of the source.

How the values were obtained:
[1] = Stability of compounds in human plasma; assay type: in vitro ADME; details: 37°C, 5 µmol/L, read-out: Residual percentage (%)
[2] = Pharmacokinetic test in SD rats; assay type: in vivo; details: rat, 2 mg/kg, male SD rats, single intravenous injection, 2 mpk, plasma
Protocol: After a single intravenous injection (dose: 2 mpk) of the compounds 6-2, 11-2, 17-2, and Dxd into male SD rats (blood collection time points: 0.083 h, 0.25 h, 0.5 h, 1 h, 2 h, 4 h, 8 h, and 24 h after IV administration, totaling 8 blood collection time points), average pharmacokinetic parameters in the plasma are as shown in Table 5: Table 5 Pharmacokinetic test result of representative compounds

[3] = Kinetic solubility test in PBS 7.4; assay type: physicochemical; details: pH 7.4, aqueous buffer
Protocol: 10 mM stock solutions of the test substances 6-2, 11-2, 17-2, Dxd, and the control drugs progesterone and diclofenac were prepared using DMSO respectively.
15 µL of 10 mM stock solution of each of the test substances was added to a corresponding position of a corresponding 96-well plate in a specified sequence. 485 µL of the PBS 7.4 was added to a corresponding vial on a sample plate. The experiment was run in duplicate. Each vial was additionally provided with a stirring rod and was plugged. Then, the sample plate was transferred in a thermostatic mixer, and oscillated at a revolving speed of 1,100 rpm at 25°C for 2 h. 2 h later, the plug was removed, the stirring rod was attracted away with a large magnet, and then the sample was transferred from the sample plate to the filter plate. Negative pressure was generated using a vacuum pump to filter the sample. 5 µL of filtrate and 5 µL of blank DMSO were transferred to another sample plate, and then 490 µL of internal standard water (acetonitrile:water=1:1) containing the internal standard was added. Depending on peak shapes, a certain proportion of internal standard water may be used to dilute the sample diluent to give better peak shapes. […]
The sample filtrate was analyzed and quantified by qualitative and quantitative LC/MS of standard substance peaks at known concentrations. […]

CYP3A4 = CYP3A4 (Homo sapiens, UniProt P08684); assay: CYP inhibition in human hepatomicrosomes, CYP3A4
Chain of CYP3A4 (P08684 whole entry): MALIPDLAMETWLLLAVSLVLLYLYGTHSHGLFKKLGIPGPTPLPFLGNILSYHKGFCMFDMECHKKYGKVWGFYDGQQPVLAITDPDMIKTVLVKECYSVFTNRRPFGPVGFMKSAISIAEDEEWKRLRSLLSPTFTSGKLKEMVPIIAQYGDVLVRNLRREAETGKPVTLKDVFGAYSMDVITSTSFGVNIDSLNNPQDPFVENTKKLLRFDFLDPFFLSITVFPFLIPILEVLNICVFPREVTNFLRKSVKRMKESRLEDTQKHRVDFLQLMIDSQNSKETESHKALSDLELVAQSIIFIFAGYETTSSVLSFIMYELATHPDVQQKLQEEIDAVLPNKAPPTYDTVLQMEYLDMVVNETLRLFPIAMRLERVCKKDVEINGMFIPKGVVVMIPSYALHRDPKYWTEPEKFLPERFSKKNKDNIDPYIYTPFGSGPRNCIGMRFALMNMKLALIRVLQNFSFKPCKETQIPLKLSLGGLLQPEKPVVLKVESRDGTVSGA

CYP1A2 = CYP1A2 (Homo sapiens, UniProt P05177); assay: CYP inhibition in human hepatomicrosomes, CYP1A2
Chain of CYP1A2 (P05177 whole entry): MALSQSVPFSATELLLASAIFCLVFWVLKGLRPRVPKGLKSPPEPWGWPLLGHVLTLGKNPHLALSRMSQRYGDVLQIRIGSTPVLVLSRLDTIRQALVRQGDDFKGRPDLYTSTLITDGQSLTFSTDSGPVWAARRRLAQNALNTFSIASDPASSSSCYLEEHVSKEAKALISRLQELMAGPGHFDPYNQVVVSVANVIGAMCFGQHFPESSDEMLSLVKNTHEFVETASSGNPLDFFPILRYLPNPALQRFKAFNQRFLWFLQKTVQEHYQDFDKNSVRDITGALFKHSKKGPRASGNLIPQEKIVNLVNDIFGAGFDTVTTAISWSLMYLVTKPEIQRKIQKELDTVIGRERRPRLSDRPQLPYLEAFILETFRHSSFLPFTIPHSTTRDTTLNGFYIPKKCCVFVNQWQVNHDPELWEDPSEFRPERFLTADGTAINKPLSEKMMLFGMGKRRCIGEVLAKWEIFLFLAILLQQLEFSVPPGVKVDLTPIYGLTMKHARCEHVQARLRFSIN

NCI-N87 = assay: Inhibition of proliferation of NCI-N87 cells by test compounds (CellTiter-Glo, 72 h); assay type: cell-based; details: Homo sapiens, NCI-N87, 72 h, NCI-N87, 72 h incubation
Outline: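 NCI-N87 cells were treated after adhesion with compound (final DMSO 0.33%) for 72 h at 37°C. Viability was read as CellTiter-Glo luminescence, and IC50 came from a four-parameter nonlinear fit.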

MDA-MB-468 = assay: Inhibition of proliferation of MDA-MB-468 cells by test compounds (CellTiter-Glo, 72 h); assay type: cell-based; details: Homo sapiens, MDA-MB-468, 72 h, MDA-MB-468, 72 h incubation
Outline: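 Cells plated, allowed to adhere, then treated with compounds (final DMSO 0.33%) for 72 h at 37°C. Viability read by CellTiter-Glo luminescence after 30 min at room temperature; IC50 from four-parameter nonlinear fit.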

With `CC[C@@]1(O)C(=O)OCc2c1cc1n(c2=O)Cc2c-1nc1cc(F)c(C)c3c1c2[C@@H](NC(=O)CO)CC3` [Dxd] the remaining at 4 h, 5 µM [1] was 83.6%, the AUC(0-inf) [2] was 302 ng·h/mL and the AUC(0-t) [2] was 301 ng·h/mL. It also gave a C0 [2] of 748 ng/mL, a clearance [2] of 113 mL/min/kg and a half-life [2] of 23.4 min. It also gave a Vd ([2]; read-out: Vss) of 2.7 L/kg, a solubility at 2 h [3] of 11.3 µM (≈ 5.58 µg/mL) and an IC50 (CYP3A4) of over 30 µM. It also gave an IC50 (CYP3A4; read-out: 3A4M (IC50 µM), human hepatomicrosomes, substrate Midazolam) of over 30 µM, an IC50 (CYP1A2) of over 30000 nM and an IC50 (NCI-N87) of 11 nM. For the same molecule, the IC50 (MDA-MB-468) was 4.6 nM.
